Test results as given in patent US7420102B2, “Dwarfism genes and dwarf plants” (Wisconsin Alumni Research Foundation, priority 2002, dated 2008).

Assays:
L10 mutant plants = assay: Rescue of mutant phenotype by external application of bioactive GA3, L10 line; assay type: in vivo, Arabidopsis
From the text: (§1) These phenotypes are similar to loss-of-function alleles of GA biosynthetic enzymes. […] Additionally, other GA forms were also substantially lower in the L10 and 69 lines (Table 4). Both mutant phenotypes could be rescued by the external application of bioactive GA3, which is consistent with the notion that the phenotypes were a result of reduced levels of bioactive GAs.

69 mutant plants = assay: Rescue of mutant phenotype by external application of bioactive GA3, 69 line; assay type: in vivo, Arabidopsis
From the text: as §1

In the case of `C=C1C[C@]23C[C@@]1(O)CC[C@H]2[C@@]12C=C[C@H](O)[C@@](C)(C(=O)O1)[C@H]2[C@@H]3C(=O)O` [GA3], the “Flowering Time LD (Number of Leaves)” value (L10 mutant plants; GA3-treated L10 plants) is reported as 8 Number of Leaves, the Height (L10 mutant plants; GA3-treated L10 plants) is reported as 30 cm and the “Internode Length” value (L10 mutant plants; GA3-treated L10 plants) is reported as 7 mm. For the same molecule, the “Number of Flowering Branches” value (L10 mutant plants; GA3-treated L10 plants) was 65, the “Rescue of mutant phenotype” value (L10 mutant plants; external application of GA3 to L10 mutant) was “rescued” and the “Flowering Time LD (Number of Leaves)” value (69 mutant plants; GA3-treated 69 plants) was 8 Number of Leaves. For the same molecule, the Height (69 mutant plants; GA3-treated 69 plants) was 30 cm, the “Internode Length” value (69 mutant plants; GA3-treated 69 plants) was 7 mm and the “Number of Flowering Branches” value (69 mutant plants; GA3-treated 69 plants) was 65. The “Rescue of mutant phenotype” value (69 mutant plants; external application of GA3 to 69 mutant) was “rescued”.
